Test results published in patent US8598211B2, “Carboxamide compounds and their use as calpain inhibitors IV” (AbbVie Inc., priority 2009, dated 2013).
pKi: −log10 of the molar value.

biological target: T1, cathepsin L (Homo sapiens, UniProt P07711); assay: Cathepsin L kinetic fluorescence enzyme inhibition assay; type: biochemical; details: selectivity ratio versus calpain
T1 construct: cathepsin L—isolated from human liver; purchased Calbiochem 219402; host or cells: human liver (natural source)
T1 sequence (P07711 114-333): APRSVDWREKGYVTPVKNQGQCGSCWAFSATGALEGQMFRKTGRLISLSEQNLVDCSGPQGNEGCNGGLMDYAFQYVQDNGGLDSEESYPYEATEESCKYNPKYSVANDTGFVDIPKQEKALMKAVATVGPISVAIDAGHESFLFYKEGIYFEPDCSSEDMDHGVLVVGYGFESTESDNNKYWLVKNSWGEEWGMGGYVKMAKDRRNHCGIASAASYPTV
Procedure: 1 nM cathepsin L—isolated from human liver (Calbiochem #219402), 2 μM Z-Phe-Arg-AMC (Bachem #I-1160) as substrate in 50 mM MES, 2 mM EDTA, 0.05% Brij 35, 2.5 mM L-cysteine, pH 6.0, room temperature.

Sel cat. L (Ki(cathepsin L)/Ki(calpain) ratio) | SMILES
++ (10<Ki(cathepsin L)/Ki(calpain)≦50) | O=C(NC1CC1)C(=O)C(Cc1ccc(OCCN2CCOCC2)cc1)NC(=O)c1cccnc1-n1ccc(-c2ccccc2)n1 (stereo not drawn) [Example 23, N-[4-(Cyclopropylamino)-1-{4-[2-(4-morpholinyl)ethoxy]phenyl}-3,4-dioxo-2-butanyl]-2-(3-phenyl-1H-pyrazol-1-yl)nicotinamide]

biological target: T2, cathepsin S (Homo sapiens, UniProt P25774); assay: Cathepsin S kinetic fluorescence enzyme inhibition assay; type: biochemical; details: selectivity ratio versus calpain
T2 construct: purchased Calbiochem 219343; host or cells: E. coli
T2 sequence (P25774 115-331): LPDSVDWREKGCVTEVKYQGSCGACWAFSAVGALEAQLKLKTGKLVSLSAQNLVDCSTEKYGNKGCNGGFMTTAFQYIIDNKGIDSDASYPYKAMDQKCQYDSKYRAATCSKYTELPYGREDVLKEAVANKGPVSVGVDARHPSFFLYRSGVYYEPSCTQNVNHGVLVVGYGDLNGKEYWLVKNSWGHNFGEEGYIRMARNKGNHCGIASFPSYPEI
Procedure: 0.5 nM recombinant human cathepsin S from E. coli (Calbiochem #219343), 20 μM Z-Val-Val-Arg-AMC (Bachem #I-1540) as substrate in 50 mM MES, 2 mM EDTA, 0.05% Brij 35, 2.5 mM L-cysteine, pH 6.0, room temperature.

Sel cat. S (Ki(cathepsin S)/Ki(calpain) ratio) | SMILES
++ (10<Ki(cathepsin S)/Ki(calpain)≦50) | O=C(NC1CC1)C(=O)C(Cc1ccc(CN2CCOCC2)cc1)NC(=O)c1cccnc1-n1ccc(-c2ccccc2)n1 (stereo not drawn) [Example 25, N-{4-(Cyclopropylamino)-1-[4-(4-morpholinylmethyl)phenyl]-3,4-dioxo-2-butanyl}-2-(3-phenyl-1H-pyrazol-1-yl)nicotinamide]
++ (10<Ki(cathepsin S)/Ki(calpain)≦50) | O=C(NC1CC1)C(=O)C(Cc1ccc(OCCN2CCOCC2)cc1)NC(=O)c1cccnc1-n1ccc(-c2ccccc2)n1 (stereo not drawn) [Example 23, N-[4-(Cyclopropylamino)-1-{4-[2-(4-morpholinyl)ethoxy]phenyl}-3,4-dioxo-2-butanyl]-2-(3-phenyl-1H-pyrazol-1-yl)nicotinamide]

biological target: T3, calpain-I (Homo sapiens, UniProt P07384); assay: Calpain I kinetic fluorescence enzyme inhibition assay; type: biochemical; details: calpain-I from human erythrocytes, Suc-Leu-Tyr-AMC, pH 7.3; apparent Ki from IC50 by Cheng-Prussoff
T3 construct: calpain-I—isolated from human erythrocytes; purchased Calbiochem 208713; host or cells: human erythrocytes (natural source)
T3 sequence (P07384 1-714): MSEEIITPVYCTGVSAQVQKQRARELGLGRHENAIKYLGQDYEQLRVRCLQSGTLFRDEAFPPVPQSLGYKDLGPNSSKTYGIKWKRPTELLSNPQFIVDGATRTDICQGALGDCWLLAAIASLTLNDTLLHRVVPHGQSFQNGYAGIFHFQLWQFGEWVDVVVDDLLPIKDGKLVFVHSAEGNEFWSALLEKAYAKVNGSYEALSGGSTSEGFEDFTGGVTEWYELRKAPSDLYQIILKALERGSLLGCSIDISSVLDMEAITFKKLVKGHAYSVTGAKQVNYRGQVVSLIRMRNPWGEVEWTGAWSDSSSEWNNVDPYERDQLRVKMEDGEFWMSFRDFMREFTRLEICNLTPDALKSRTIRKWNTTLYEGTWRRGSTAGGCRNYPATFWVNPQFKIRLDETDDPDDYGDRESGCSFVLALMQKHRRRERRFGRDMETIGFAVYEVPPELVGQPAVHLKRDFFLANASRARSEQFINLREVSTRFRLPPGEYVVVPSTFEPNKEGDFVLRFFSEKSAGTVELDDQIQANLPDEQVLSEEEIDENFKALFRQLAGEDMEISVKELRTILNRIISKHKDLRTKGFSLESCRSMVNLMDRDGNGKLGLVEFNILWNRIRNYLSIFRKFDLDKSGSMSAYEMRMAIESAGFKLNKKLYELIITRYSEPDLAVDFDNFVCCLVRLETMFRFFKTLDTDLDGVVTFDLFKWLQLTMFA
T3 sequence (P04632 1-268 partner): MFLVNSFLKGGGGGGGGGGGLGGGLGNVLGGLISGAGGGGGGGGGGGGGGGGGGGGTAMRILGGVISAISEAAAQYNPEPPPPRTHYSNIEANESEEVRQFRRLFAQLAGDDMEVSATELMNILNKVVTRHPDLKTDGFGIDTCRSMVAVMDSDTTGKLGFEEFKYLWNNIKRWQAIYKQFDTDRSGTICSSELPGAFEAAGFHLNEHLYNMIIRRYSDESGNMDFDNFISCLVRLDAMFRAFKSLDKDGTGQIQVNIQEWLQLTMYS
Procedure: Testing for blockade of the corresponding enzymic activities was carried out by means of kinetic fluorescence assays (excitation 390 nm, emission 460 nm).
Apparent Ki values were calculated from the experimentally determined IC50 values by the Cheng-Prussoff relation assuming a reversible competitive enzyme inhibition.
20 nM calpain-I—isolated from human erythrocytes (Calbiochem #208713), 100 μM Suc-Leu-Tyr-AMC (Bachem #I-1355) as substrate in buffer with 62 mM imidazole, 0.3 mM CaCl2, 0.10% CHAPS, 0.05% BSA, 1 mM DTT at pH 7.3 and room temperature.

SMILES | pKi
O=C(NC1CC1)C(=O)C(Cc1ccccc1)NC(=O)c1cccnc1-n1ccc(-c2ccccc2)n1 (stereo not drawn) [Example 5, N-[4-(Cyclopropylamino)-3,4-dioxo-1-phenylbutan-2-yl]-2-(3-phenyl-1H-pyrazol-1-yl)pyridine-3-carboxamide] | > 6.60
COC(=O)CNC(=O)C(=O)C(Cc1ccccc1)NC(=O)c1cccnc1-n1ccc(-c2ccccc2)n1 (stereo not drawn) [Example 21, Methyl N-[2-oxo-4-phenyl-3-({[2-(3-phenyl-1H-pyrazol-1-yl)-3-pyridinyl]carbonyl}amino)butanoyl]glycinat] | > 6.60
O=C(NCc1nc2ccccc2o1)C(=O)C(Cc1ccccc1)NC(=O)c1cccnc1-n1ccc(-c2ccccc2)n1 (stereo not drawn) [Example 15, N-{4-[(1,3-Benzoxazol-2-ylmethyl)amino]-3,4-dioxo-1-phenylbutan-2-yl}-2-(3-phenyl-1H-pyrazol-1-yl)pyridine-3-carboxamide] | > 6.60
O=C(NC1CC1)C(=O)C(Cc1cccc(F)c1)NC(=O)c1cccnc1-n1ccc(-c2ccccc2)n1 (stereo not drawn) [Example 14, N-(4-(Cyclopropylamino)-1-(3-fluorophenyl)-3,4-dioxobutan-2-yl)-2-(3-phenyl-1H-pyrazol-1-yl)nicotinamide] | 6.40 to 6.60
O=C(NC1CC1)C(=O)C(Cc1ccc(CN2CCOCC2)cc1)NC(=O)c1cccnc1-n1ccc(-c2ccccc2)n1 (stereo not drawn) [Example 25, N-{4-(Cyclopropylamino)-1-[4-(4-morpholinylmethyl)phenyl]-3,4-dioxo-2-butanyl}-2-(3-phenyl-1H-pyrazol-1-yl)nicotinamide] | 6.10 to 6.40
O=C(NC1CC1)C(=O)C(Cc1ccccc1)NC(=O)c1cccnc1-n1cc(F)c(-c2ccccc2)n1 (stereo not drawn) [Example 12, N-(4-(Cyclopropylamino)-3,4-dioxo-1-phenylbutan-2-yl)-2-(4-fluoro-3-phenyl-1H-pyrazol-1-yl)nicotinamide] | 6.10 to 6.40
O=C(NC1CC1)C(=O)C(Cc1ccc(F)cc1)NC(=O)c1cccnc1-n1ccc(-c2ccccc2)n1 (stereo not drawn) [Example 13, N-(4-(Cyclopropylamino)-1-(4-fluorophenyl)-3,4-dioxobutan-2-yl)-2-(3-phenyl-1H-pyrazol-1-yl)nicotinamide] | 6.10 to 6.40
O=C(NCC1CC1)C(=O)C(Cc1ccccc1)NC(=O)c1cccnc1-n1ccc(-c2ccccc2)n1 (stereo not drawn) [Example 9, N-(4-(Cyclopropylmethylamino)-3,4-dioxo-1-phenylbutan-2-yl)-2-(3-phenyl-1H-pyrazol-1-yl)nicotinamide] | 6.10 to 6.40
O=C(NC1CCC1)C(=O)C(Cc1ccccc1)NC(=O)c1cccnc1-n1ccc(-c2ccccc2)n1 (stereo not drawn) [Example 10, N-(4-(Cyclobutylamino)-3,4-dioxo-1-phenylbutan-2-yl)-2-(3-phenyl-1H-pyrazol-1-yl)nicotinamide] | 6.10 to 6.40
O=C(NC1CC1)C(=O)C(Cc1ccc(OCCN2CCOCC2)cc1)NC(=O)c1cccnc1-n1ccc(-c2ccccc2)n1 (stereo not drawn) [Example 23, N-[4-(Cyclopropylamino)-1-{4-[2-(4-morpholinyl)ethoxy]phenyl}-3,4-dioxo-2-butanyl]-2-(3-phenyl-1H-pyrazol-1-yl)nicotinamide] | 6.10 to 6.40

The remaining lines, values ahead:

pKi | SMILES
6.40 to 6.60 | O=C(NCc1ncco1)C(=O)C(Cc1ccccc1)NC(=O)c1cccnc1-n1ccc(-c2ccccc2)n1 (stereo not drawn) [Example 24, N-{4-[(1,3-Oxazol-2-ylmethyl)amino]-3,4-dioxo-1-phenyl-2-butanyl}-2-(3-phenyl-1H-pyrazol-1-yl)nicotinamide]
6.40 to 6.60 | O=C(NCCc1ccccc1)C(=O)C(Cc1ccccc1)NC(=O)c1cccnc1-n1ccc(-c2ccccc2)n1 (stereo not drawn) [Example 17, N-(3,4-Dioxo-4-(phenethylamino)-1-phenylbutan-2-yl)-2-(3-phenyl-1H-pyrazol-1-yl)nicotinamide]
6.10 to 6.40 | CCCNC(=O)C(=O)C(Cc1ccccc1)NC(=O)c1cccnc1-n1ccc(-c2ccccc2)n1 (stereo not drawn) [Example 11, N-(3,4-Dioxo-1-phenyl-4-(propylamino)butan-2-yl)-2-(3-phenyl-1H-pyrazol-1-yl)nicotinamide]
6.40 to 6.60 | O=C(NCc1ccccn1)C(=O)C(Cc1ccccc1)NC(=O)c1cccnc1-n1ccc(-c2ccc(F)cc2)n1 (stereo not drawn) [Example 2, N-{3,4-Dioxo-1-phenyl-4-[(pyridin-2-ylmethyl)amino]butan-2-yl}-2-[3-(4-fluorophenyl)-1H-pyrazol-1-yl]pyridine-3-carboxamide]
> 6.60 | O=C(NCCCc1ccccn1)C(=O)C(Cc1ccccc1)NC(=O)c1cccnc1-n1ccc(-c2ccc(F)cc2)n1 (stereo not drawn) [Example 4, N-(3,4-Dioxo-1-phenyl-4-{[3-(pyridin-2-yl)propyl]amino}butan-2-yl)-2-[3-(4-fluorophenyl)-1H-pyrazol-1-yl]pyridine-3-carboxamide]
6.00 to 6.10 | O=C(NC1CC1)C(=O)C(Cc1ccccc1)NC(=O)c1cccnc1-n1ccc(-c2ccc(F)cc2)n1 (stereo not drawn) [Example 19, N-[4-(Cyclopropylamino)-3,4-dioxo-1-phenyl-2-butanyl]-2-[3-(4-fluorophenyl)-1H-pyrazol-1-yl]nicotinamide]
> 6.60 | NC(=O)C(=O)C(Cc1ccccc1)NC(=O)c1cccnc1-n1ccc(-c2ccc(F)cc2)n1 (stereo not drawn) [Example 18, N-(3-Amino-1-benzyl-2,3-dioxopropyl)-2-[3-(4-fluorophenyl)-1H-pyrazol-1-yl]nicotinamide, reference compound]
6.40 to 6.60 | CNC(=O)C(=O)C(Cc1ccccc1)NC(=O)c1cccnc1-n1ccc(-c2ccccc2)n1 (stereo not drawn) [Example 7, N-(4-(Methylamino)-3,4-dioxo-1-phenylbutan-2-yl)-2-(3-phenyl-1H-pyrazol-1-yl)nicotinamide, reference compound]
> 6.60 | O=C(NCc1ccccc1)C(=O)C(Cc1ccccc1)NC(=O)c1cccnc1-n1ccc(-c2ccccc2)n1 (stereo not drawn) [Example 16, N-(4-(Benzylamino)-3,4-dioxo-1-phenylbutan-2-yl)-2-(3-phenyl-1H-pyrazol-1-yl)nicotinamide]
> 6.60 | O=C(NCc1ccccn1)C(=O)C(Cc1ccccc1)NC(=O)c1cccnc1-n1ccc(-c2ccccc2)n1 (stereo not drawn) [Example 8, N-[4-(Pyridin-2-ylmethylamino)-3,4-dioxo-1-phenylbutan-2-yl]-2-(3-phenyl-1H-pyrazol-1-yl)pyridine-3-carboxamide]
6.10 to 6.40 | C=CCNC(=O)C(=O)C(Cc1ccccc1)NC(=O)c1cccnc1-n1ccc(-c2ccccc2)n1 (stereo not drawn) [Example 6, N-[3,4-Dioxo-1-phenyl-4-(prop-2-en-1-ylamino)butan-2-yl]-2-(3-phenyl-1H-pyrazol-1-yl)pyridine-3-carboxamide]
